Measured values: article PMC3830479 (Journal of Experimental Botany, 2013)
pKi: −log10 of the molar value.

Tests used:
OsG6PDH1 [1] = molecular target: T1, OsG6PDH1 (Oryza sativa, UniProt Q0DZS9); set-up: Recombinant G6PDH spectrophotometric assay at 340 nm with G6P, NADP+ reduction, 25 °C, pH 7.6; settings: feedback inhibition, G6P/NADP+ assay; inhibitor; read-out: Ki NADPH
T1 construct: gene Os02g0600400; coding region in pET32 (N-terminal fusion, His-tag), E. coli SoluBL21, HisTrap purified
T1 sequence (Q0DZS9 1-517): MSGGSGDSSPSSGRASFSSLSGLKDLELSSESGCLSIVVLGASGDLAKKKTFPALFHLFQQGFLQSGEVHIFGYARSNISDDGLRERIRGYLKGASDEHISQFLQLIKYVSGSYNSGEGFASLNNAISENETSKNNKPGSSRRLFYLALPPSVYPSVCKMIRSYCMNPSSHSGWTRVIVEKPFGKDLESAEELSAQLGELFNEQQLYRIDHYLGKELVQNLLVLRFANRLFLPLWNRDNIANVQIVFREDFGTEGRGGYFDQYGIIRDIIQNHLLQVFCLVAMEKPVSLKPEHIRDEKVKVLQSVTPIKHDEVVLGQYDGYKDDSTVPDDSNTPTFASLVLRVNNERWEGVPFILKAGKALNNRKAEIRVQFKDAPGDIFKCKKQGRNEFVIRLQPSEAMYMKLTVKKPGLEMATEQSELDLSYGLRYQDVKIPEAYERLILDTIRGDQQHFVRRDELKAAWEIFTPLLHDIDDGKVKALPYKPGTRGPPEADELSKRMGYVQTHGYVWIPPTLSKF
Description: (§1) The activity of recombinant rice G6PDHs was measured spectrophotometrically (340nm) at 25 °C by detecting NADP reduction via G6PDH reaction, which is coupled with G6P production, as described by [Wakao and Benning (2005)]. Reaction mixtures with 0.01–10mM G6P contained 0.2M TRIS (pH 7.6), NADP^+ (0.01–10mM), and MgCl2 (5mM). DTT (10mM) was incubated with the reaction mixture for 1h to test its activity. The DNA fragment containing the coding region of OsHXK5, OsHXK6, AlsK, OsG6PDH1, or OsG6PDH2 was subcloned in-frame into the pET32 vector (Novagen), and overexpressed in E. coli SoluBL21 (Genlantis, San Diego, CA, USA) according to the manufacturer’s instructions. The recombinant proteins were purified using a HisTrap HP column (GE Healthcare, Wauwatosa, WI, USA) as per the manufacturer’s instructions and dialysed against 0.2M TRIS-HCl buffer (pH 7.6) containing MgCl2 (5mM). Recombinant proteins of OsG6PDH1 and OsG6PDH2 had enzymatic activity with G6P and NADP^+, and OsG6PDH1 had higher activity based on k cat/K m values (Table 2). […] Neither enzyme used A6P as a substrate (Supplementary Table S3).

OsG6PDH2 [2] = molecular target: T2, OsG6PDH2 (Oryza sativa, UniProt Q7X7I6); set-up: Recombinant G6PDH spectrophotometric assay at 340 nm with G6P, NADP+ reduction, 25 °C, pH 7.6; settings: feedback inhibition, G6P/NADP+ assay; inhibitor; read-out: Ki NADPH
T2 construct: gene Os04g0485300; coding region in pET32 (N-terminal fusion, His-tag), E. coli SoluBL21, HisTrap purified
T2 sequence (Q7X7I6 1-505): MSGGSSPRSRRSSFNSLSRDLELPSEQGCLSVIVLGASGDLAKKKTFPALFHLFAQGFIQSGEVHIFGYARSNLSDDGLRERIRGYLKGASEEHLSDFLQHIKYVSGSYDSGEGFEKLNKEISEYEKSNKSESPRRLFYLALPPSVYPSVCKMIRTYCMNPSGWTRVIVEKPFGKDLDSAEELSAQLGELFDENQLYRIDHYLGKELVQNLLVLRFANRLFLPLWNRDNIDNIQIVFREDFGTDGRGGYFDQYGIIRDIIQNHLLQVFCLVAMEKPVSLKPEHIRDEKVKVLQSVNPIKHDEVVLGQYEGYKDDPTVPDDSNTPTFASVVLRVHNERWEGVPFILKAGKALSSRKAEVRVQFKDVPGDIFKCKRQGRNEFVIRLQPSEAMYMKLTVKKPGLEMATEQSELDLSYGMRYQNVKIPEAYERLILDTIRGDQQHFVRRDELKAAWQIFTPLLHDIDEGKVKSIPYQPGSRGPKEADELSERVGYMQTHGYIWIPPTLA
Description: as §1

OsG6PDH2 [3] = molecular target: T2, OsG6PDH2; experiment: inhibition of G6PDH activity; assay type: biochemical; settings: feedback (product) inhibition
OsG6PDH1 [4] = molecular target: T1, OsG6PDH1; experiment: inhibition of G6PDH activity; assay type: biochemical; settings: feedback (product) inhibition

pKi (OsG6PDH1 [1]): 4.38 | pKi (OsG6PDH2 [2]): 4.52
SMILES: NC(=O)C1=CN([C@@H]2O[C@H](COP(=O)(O)OP(=O)(O)OC[C@H]3O[C@@H](n4cnc5c(N)ncnc54)[C@H](OP(=O)(O)O)[C@@H]3O)[C@@H](O)[C@H]2O)C=CC1 [NADPH]
inhibition of G6PDH activity (OsG6PDH2 [3]): OsG6PDH1 and OsG6PDH2 suffered tight feedback inhibition by NADPH | inhibition of G6PDH activity (OsG6PDH1 [4]): OsG6PDH1 and OsG6PDH2 suffered tight feedback inhibition by NADPH
